Each block holds one compound with its values, some of them ahead of it.
What was measured:
[1] = target: T1, GSK-3β (Oryctolagus cuniculus, UniProt A0A5F9DUX8); assay: In vitro GSK-3β kinase assay (ELISA-based, IRS-1 peptide substrate); assay type: biochemical, rabbit; conditions: for IC50: GSK-3β inhibition, 10 μM ATP; for IC50 / GSK-3β inhibition (in words): in vitro kinase assay; for GSK-3β inhibition (in words): screening hits; for Effect of Triton ×100 on inhibition of GSK-3β: 20 μM, 0.05% Triton ×100 (colloidal aggregation control)
Protocol: (§1) An ELISA-based assay was developed in our laboratory to measure GSK-3 activity. In brief, biotin-labelled IRS-1 peptide substrate was bound to streptavidin-coated 96-well microplates. A GSK-3 assay solution (0.1 μg GSK-3β, 20 mM Tris (pH 7.3), 10 mM MgCl2, and 10 μM ATP) was added to each well, together with the candidate compound at indicated concentrations, and the plates were incubated for 15 min at 30 °C. After having been washed (PBS 0.05% tween), the plates were incubated with a specific anti-phospho IRS-1 antibody (Ser^332) (1:2000), followed by HRP-secondary antibody (1:8000). The signal was developed with TMB solution (abcam, Cambridge UK, Cat# ab210902), stopped with H2SO4, and monitored in a plate reader ([…]). Assays were conducted in duplicates in three independent experiments. In the ATP competitive, or, substrate competitive assays, the assays (60 μL) were performed in Eppendorf tubes (to use “unbound” substrate), and 10–20 μL were spotted on the streptavidin-coated plates. Km values were calculated from the non-linear curve fit, and Ki values were calculated by Kapp = Km (1 + [I]/Ki). Bacterially expressed His-tagged rabbit GSK-3β was purified as described, and purified human GSK-3α was purchased from abcam (Cat# ab42597). The selectivity of compound 4-4 against a collection of protein kinases was assayed at the International Center for Kinase Profiling at the MRC unit, University of Dundee, UK.

[2] = tested on: GSK-3β-F93A mutant; assay: In vitro kinase assay with GSK-3β-F93A mutant; assay type: biochemical
Source text: To further confirm that compounds interact with the GSK-3β substrate binding site, we performed in vitro kinase assays with the GSK-3β-F93A mutant in which Phe 93 was replaced by alanine. […] This, in contrast, to SB216763, an established GSK-3 ATP competitive inhibitor [46] that inhibited both wild-type (WT) and the F93A mutant (Figure 3B).
as §1

[3] = tested on: Mouse hippocampal primary neurons; assay: β-catenin immunostaining in hippocampal primary neurons; assay type: cell-based; conditions: 4-4 5 μM, CHIR99021 10 μM, 4 h
Protocol: Hippocampi were isolated from C57BL6/J mice (0–1 day old), and tissues were digested with trypsin type XI (Sigma, Rehovot, Israel, Cat # T1005), and DNase type IV (Sigma, cat #D5025). Cells were suspended in a plating medium including MEM supplemented with 10% FBS, transferrin (0.089 mg/m), GlutaMAX (0.75 U/mL) (Sigma, Cat # 35050-038), insulin (16 μM) (Roche, Basel, Switzerland, Cat # 45865100), and SM1 neuronal supplement (STEMCELL, Seattle, WA, USA, Cat # 05711), and plated on glass coverslips coated with Matrigel (Corning, NY, USA, Cat# 356234) in a 24-well plate. […]
Primary neuron cells were treated with 4-4 (5 μM), CHIR99021 (10 μM) (Merck, MA, USA), or, vehicle (DMSO/1%Tween 80) for 4 hr. Cells were fixed with 4% PFA and immunostained with anti-βcatenin and anti-MAP2 (Sypnactic System, Goettingen, Germany, A neuronal marker) antibodies. βcatenin signal was evaluated by Image J software using co-localization finder plugin (https://imagej.nih.gov/ij/plugins/colocalization-finder.html) that calculated the ratio of βcatenin over MAP2 and DAPI in each cell. The average ratio that was determined for control vehicle-treated cells was set to 1 and respective folds of treated cells were calculated accordingly.

[4] = tested on: Mouse hippocampal primary neurons; assay: Tau (Ser 396) phosphorylation in hippocampal primary neurons (immunoblot); assay type: cell-based; conditions: 20 μM, 4 h
Protocol: Hippocampi were isolated from C57BL6/J mice (0–1 day old), and tissues were digested with trypsin type XI (Sigma, Rehovot, Israel, Cat # T1005), and DNase type IV (Sigma, cat #D5025). Cells were suspended in a plating medium including MEM supplemented with 10% FBS, transferrin (0.089 mg/m), GlutaMAX (0.75 U/mL) (Sigma, Cat # 35050-038), insulin (16 μM) (Roche, Basel, Switzerland, Cat # 45865100), and SM1 neuronal supplement (STEMCELL, Seattle, WA, USA, Cat # 05711), and plated on glass coverslips coated with Matrigel (Corning, NY, USA, Cat# 356234) in a 24-well plate. The day after plating and twice a week thereafter half of the medium was removed and was replaced with by fresh feeding medium (plating medium lacking insulin and containing Ara-C (3 μM)) (Sigma, Cat# C6645).
(§2) Equal amounts of proteins (30–50 μg) were subjected to SDS PHAGE gel electrophoresis, transferred to nitrocellulose membranes, and immunoblotted with selected antibodies followed by incubation with HRP-linked anti-rabbit, or, anti-mouse IgG (Cell signaling, MA, USA, and Jackson Immune Research, PA, USA, respectively). ECL developed membranes were imaged in UVITEC Alliance biomolecular imaging, and densitometry analysis of respected bands was analyzed with software provided by the vendor. Representative protein bands were taken from the same gel, and each gel represents three independent experiments. […]

[5] = target: T1, GSK-3β; assay: Michaelis Menten ATP competitive and substrate competitive assays; assay type: biochemical, rabbit; conditions: Lineweaver-Burk plots; for Mode of inhibition versus substrate: lines intersect at the Y-axis
Protocol: We next performed Michaelis Menten competitive assays to examine the ability of 4-3 or 4-4 to compete with ATP or with substrates. […] Subsequently, Michaelis Menten substrate competitive assays were performed and data were analyzed by Lineweaver–Burk plots (Figure 6B). […] The calculated ki values were 7.7 ± 3 and 7.0 ± 0.2 for 4-3 and 4-4 respectively. […] While most of our experiments concentrated on GSK-3β, we also tested the inhibition of GSK-3α by compounds 4-1 through 4-5. […] Inhibition of GSK-3β by 4-3 or 4-4 was not affected by the detergent (Figure 6E). As a final caveat, we evaluated the selectivity of our leading compound 4-4.
as §1

[6] = tested on: SH-SY5Y cells; assay: Cytoplasmic β-catenin levels in SH-SY5Y cells (immunoblot); assay type: cell-based, human; conditions: 4 h
Protocol: To verify the potential biological activity of our SCI compounds, we tested their ability to inhibit cellular GSK-3. We focused on the SCI compound 4-4 that was the best inhibitor of the five molecules that were tested (4-1–4-5) β-catenin, which is a central Wnt signaling component, and a well-established GSK-3 target. β-catenin phosphorylation by GSK-3 triggers its rapid proteasomal degradation. We, therefore, studied potential alterations in β-catenin levels following treatment with 4-4. Human neuroblastoma SH-SY5Y cells were treated with increasing concentrations of 4-4, and the levels of β-catenin were determined in the cytoplasmic fraction (prepared after cell permeabilization and sup collection), this to avoid possible “masking” of membrane-associated β-catenin. […]
as §2, with “vendor.” for “vendor. Representative protein bands were taken from the same gel, and each gel represents three independent experiments.”

[7] = tested on: 30 protein kinases; assay: Selectivity against a collection of protein kinases (International Center for Kinase Profiling, Dundee); assay type: biochemical; conditions: 10 μM
Protocol: An ELISA-based assay was developed in our laboratory to measure GSK-3 activity. In brief, biotin-labelled IRS-1 peptide substrate was bound to streptavidin-coated 96-well microplates. A GSK-3 assay solution (0.1 μg GSK-3β, 20 mM Tris (pH 7.3), 10 mM MgCl2, and 10 μM ATP) was added to each well, together with the candidate compound at indicated concentrations, and the plates were incubated for 15 min at 30 °C. After having been washed (PBS 0.05% tween), the plates were incubated with a specific anti-phospho IRS-1 antibody (Ser^332) (1:2000), followed by HRP-secondary antibody (1:8000). The signal was developed with TMB solution (abcam, Cambridge UK, Cat# ab210902), stopped with H2SO4, and monitored in a plate reader ([…]). Assays were conducted in duplicates in three independent experiments. In the ATP competitive, or, substrate competitive assays, the assays (60 μL) were performed in Eppendorf tubes (to use “unbound” substrate), and 10–20 μL were spotted on the streptavidin-coated plates. Km values were calculated from the non-linear curve fit, and Ki values were calculated by Kapp = Km (1 + [I]/Ki). Bacterially expressed His-tagged rabbit GSK-3β was purified as described, and purified human GSK-3α was purchased from abcam (Cat# ab42597). […]

T1 sequence (A0A5F9DUX8 entry or part of it): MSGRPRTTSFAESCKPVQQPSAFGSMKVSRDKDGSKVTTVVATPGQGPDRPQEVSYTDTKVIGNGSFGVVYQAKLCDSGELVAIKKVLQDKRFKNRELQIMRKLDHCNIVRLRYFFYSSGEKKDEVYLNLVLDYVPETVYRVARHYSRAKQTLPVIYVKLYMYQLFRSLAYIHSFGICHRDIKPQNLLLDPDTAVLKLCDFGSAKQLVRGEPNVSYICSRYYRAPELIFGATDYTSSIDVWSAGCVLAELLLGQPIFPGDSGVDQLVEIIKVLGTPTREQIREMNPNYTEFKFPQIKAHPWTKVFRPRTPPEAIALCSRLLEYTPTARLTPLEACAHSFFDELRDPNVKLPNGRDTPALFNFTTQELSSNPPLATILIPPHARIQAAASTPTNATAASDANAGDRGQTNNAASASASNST

Compound: CCOC(=O)C1CCCN(c2cc(Nc3ccc(C(=O)O)cc3)c3c4c(onc24)-c2ccccc2C3=O)C1 (stereo not shown) [Compound 3-13]
IC50 [1]: > 21 µM

Compound: O=C(O)CCCNc1cc(N2CCN(c3ccc(F)cc3)CC2)c2noc3c2c1C(=O)c1ccccc1-3 [Compound 2-1]
GSK-3β inhibition (in words) [1]: best GSK-3β inhibitors

Compound: O=C(O)CCCNc1cc(N2CCN(C(=O)c3ccco3)CC2)c2noc3c2c1C(=O)c1ccccc1-3 [Compound 2-2]
IC50 [1]: 21 ± 4 µM
GSK-3β inhibition (in words) [1]: best GSK-3β inhibitors

Compound: O=C(O)CCNc1cc(N2CCN(c3ccc(F)cc3)CC2)c2noc3c2c1C(=O)c1ccccc1-3 [Compound 3-8]
IC50 [1]: 8 ± 3 µM

Compound: Cc1c[nH]c(-c2cnc(NCCNc3ccc(C#N)cn3)nc2-c2ccc(Cl)cc2Cl)n1 [CHIR9920, reference compound]
β-catenin levels in soma and dendrites of neurons [3]: significant increase

Compound: Cc1sc2nc3c(SC(C)C(=O)O)cc(C(=O)c4ccccc4O)cn3c(=O)c2c1C (stereo not shown) [Compound 1-6]
IC50 [1]: 200 ± 30 µM

Now from value to compound, other results behind:

IC50 [1]: > 21 µM
Compound: O=C(O)CCNc1cc(N2CCN(C(=O)c3ccco3)CC2)c2noc3c2c1C(=O)c1ccccc1-3 [Compound 3-5]

Inhibition of F93A mutant ([2]; 20 μM each): barely inhibited
Compound: KEAPPSPPQS(p)PF [Compound L803F, reference compound]

IC50 [1]: > 21 µM
Compound: O=C(O)CNc1cc(N2CCC(c3ccccc3)CC2)c2noc3c2c1C(=O)c1ccccc1-3 [Compound 3-9]

IC50 [1]: 180 ± 20 µM
Compound: O=C(O)CC1S/C(=N/N=C/c2cc(Br)ccc2OCc2ccc(Cl)cc2)NC1=O (stereo not shown) [Compound 1-7]

Inhibition of F93A mutant ([2]; 1 μM): inhibited
Inhibition of wild-type (WT) GSK-3β ([1]; 1 μM): inhibited
Compound: Cn1cc(C2=C(c3ccc(Cl)cc3Cl)C(=O)NC2=O)c2ccccc21 [SB216763, reference compound]

Mode of inhibition versus ATP [5]: non-competitive inhibitors for ATP
Mode of inhibition versus substrate [5]: substrate competitive inhibitors
Inhibition of F93A mutant ([2]; 20 μM each): did not inhibit
Effect of Triton ×100 on inhibition of GSK-3β [1]: not affected
IC50 [1]: 1 to 4 µM
Compound: O=C1c2ccccc2-c2onc3c(N4CCN(c5ccc(O)cc5)CC4)cc(NCCP(=O)(O)O)c1c23 [Compound 4-4]
Phosphorylation of tau (Ser 396) [4]: reduced
Cytoplasmic β-catenin at higher doses ([6]; 10 μM): reduction
Concentration sufficient to activate β-catenin in the cytoplasm [6]: 1 to 5 µM
Selectivity over 30 protein kinases [7]: showed specificity toward GSK-3α and GSK-3β
β-catenin levels in soma and dendrites of neurons [3]: significant increase

Mode of inhibition versus ATP [5]: non-competitive inhibitors for ATP
Mode of inhibition versus substrate [5]: substrate competitive inhibitors
Inhibition of F93A mutant ([2]; 20 μM each): did not inhibit
Effect of Triton ×100 on inhibition of GSK-3β [1]: not affected
IC50 [1]: 1 to 4 µM
Compound: O=C(O)c1ccc(N2CCN(c3cc(NCCP(=O)(O)O)c4c5c(onc35)-c3ccccc3C4=O)CC2)cc1 [Compound 4-3]

Reference: PMC7698860, “Discovery and Design of Novel Small Molecule GSK-3 Inhibitors Targeting the Substrate Binding Site” (International Journal of Molecular Sciences, 2020)
